Where “and” joins values, the source holds several entries; their conditions need not be identical. Equal values may be shown once.

A short description of this series: solvent given as SMILES.

`CCC1=C(CC)c2cccc3c2c(cc2nc4ccccc4nc23)O1`: under “in ClCCl”, the absorption maximum turned out to be 501 nm.
With `F[B-]1(F)OC(c2ccc3ccccc3c2)=CC(c2ccc3ccccc3c2)=[O+]1`, the absorption maximum is, setting by setting: (in CC#N) 419 nm; (in ClC(Cl)(Cl)Cl) 412 nm.
Regarding `O=Cc1ccc(-c2ccc(-c3nc4ccccc4s3)c(O)c2)s1`, the absorption maximum (in CCO) was 376 nm.
On to `CN(C)c1ccc(-c2ccc(-c3cc(N4CCCCC4)c(C#N)c4c3-c3ccccc3CC4)s2)cc1`, for which the absorption maximum (in C1CCCCC1) was found to be 368 nm; the absorption maximum (in C1CCOC1) came to 350 nm; the absorption maximum (in CN(C)C=O) is on record as 384 nm; the absorption maximum (in CS(C)=O) stood at 379 nm; the absorption maximum (in Cc1ccccc1) is listed as 377 nm; the absorption maximum (in ClC(Cl)Cl) came out at 377 nm.
`COc1ccc(-c2cc(-c3ccc(OC)cc3)c3c(N)nc(N4CCCC4)c(C#N)c3n2)cc1`: the absorption maximum stood at 416 nm (in CC#N); 416 nm (in CC(C)=O); 412 nm (in CC(C)O); 412 nm (in CO); 420 nm (in ClC(Cl)Cl); 418 nm (in ClCCl). Moreover, the absorption maximum (in c1ccccc1) is recorded as 420 nm.
For `C#Cn1c(-c2cc(-c3nc4ccc(C)cc4n3C#C)cc(-c3nc4ccc(C)cc4n3C#C)c2)nc2ccc(C)cc21`, the absorption maximum (in ClCCl) is 306.5 nm.
`CN(C)c1cccc2c1C(=O)c1ccccc1C2=O`: the absorption maximum reads like this: (in C1CCCCC1) 487 nm; (in CC1CCCCC1) 487.5 nm; (in CC#N) 502 nm; (in CCC(C)CC) 487 nm; (in CCCCCC) 487.5 nm; (in CCOC(C)=O) 498 nm.
Compound `CCCCCCCCCCCCOc1ccc(C#CC(C#Cc2ccc(OCCCCCCCCCCCC)cc2)=Cc2cc(C=C(C#Cc3ccc(OCCCCCCCCCCCC)cc3)C#Cc3ccc(OCCCCCCCCCCCC)cc3)cc(C=C(C#Cc3ccc(OCCCCCCCCCCCC)cc3)C#Cc3ccc(OCCCCCCCCCCCC)cc3)c2)cc1` came in with an absorption maximum (in CCOC(C)=O) of 347 nm.
Regarding `CC(C)c1ccc2ccc3c(C(C)C)ccc4ccc1c2c43`, the absorption maximum is listed as 345 nm (in CCCCCC), 343 nm (in CO) and 346 nm (in ClCCl).
Take `c1ccc(-c2pc3ccccc3s2)cc1` (stereo unspecified): the absorption maximum (in CC#N) was determined as 330 nm.
With `CN(C)c1ccc(C(=O)Nc2ccccc2)cc1`, the absorption maximum runs as follows: (in C1CCCCC1) 307 nm; (in C1CCOC1) 311 nm; (in CC#N) 314 nm; (in CCOCC) 307 nm.
Turning to `O=C(O)CCCOc1cc2ccc3cccc4ccc(c1)c2c34`, the absorption maximum (in CO) was 382 nm.
Consider `CCCCCCCCCCCCNc1cccc2[n+]1[B-](F)(F)n1c(c3cccc4cccc1c43)=N2`, for which the absorption maximum (in C1CCOC1) was 498 nm; the absorption maximum (in CC#N) came to 493 nm; the absorption maximum (in CCCCCC) turned out to be 496 nm; the absorption maximum (in Cc1ccccc1) is listed as 500 nm; the absorption maximum (in ClCCl) is 497 nm and 467 nm.
Turning to `CCN(CC)c1ccc(C(=C(c2ccc(B(c3c(C)cc(C)cc3C)c3c(C)cc(C)cc3C)cc2)c2ccc(B(c3c(C)cc(C)cc3C)c3c(C)cc(C)cc3C)cc2)c2ccc(N(CC)CC)cc2)cc1`, the absorption maximum (in C1CCOC1) came out at 431 nm.
Take `COCCC1=Cc2nc1ccc1[nH]c(cc1CCOC)c1nc(c(NC(=O)CCCC(=O)O)cc3[nH]c2cc3CCOC)C(CCOC)=C1`: for the setting “in Cc1ccccc1”, the absorption maximum was found to be 645 nm.
The same measure, in the same setting: to `CC(C)(C)c1ccccc1N(c1ccccc1)c1ccc(S(=O)(=O)c2ccc(S(=O)(=O)c3ccc(N(c4ccccc4)c4ccccc4C(C)(C)C)cc3)cc2)cc1` belongs 348 nm.
For the compound `COc1ccc(-c2csc(/C(C#N)=C/c3ccc(Cl)cc3Cl)n2)cc1`, the absorption maximum (in CC#N) is given as 377 nm.
On to `CCOC(=O)CCOc1ccccc1C(c1c(C)[nH]c2ccccc12)c1c(C)[nH]c2ccccc12`, for which the absorption maximum came out at 291 nm (in CO) and 290 nm (in O).
In the case of `CCN(CC)c1ccc2cc(/C(Cl)=C/C=C/C(=C(C#N)C#N)c3ccc4c(c3)c3ccccc3n4CC)c(=O)oc2c1`, the absorption maximum is, setting by setting: (in CC(C)=O) 518 nm; (in CCOC(C)=O) 508 nm; (in CN(C)C=O) 532 nm; (in CS(C)=O) 538 nm; (in Cc1ccccc1) 508 nm; (in ClCCl) 526 nm.
On to `O=C(c1cc(F)c(N2CCCCC2)cc1F)c1cc(F)c(N2CCCCC2)cc1F`, for which the absorption maximum (in CCO) is recorded as 354 nm.
Turning to `CCCCC(CC)Cn1c2cc(C#N)c(-c3ccc(N(c4ccccc4)c4ccccc4)cc3)cc2c2cc(-c3ccc(N(c4ccccc4)c4ccccc4)cc3)c(C#N)cc21` (stereo unspecified), the absorption maximum (in ClCCl) stood at 420 nm.
`CCCCCCCCN1C(=O)c2ccc3c4c(-c5ccc(-n6c7ccccc7c7ccccc76)cc5)cc5c6c(ccc(c7c(-c8ccc(-n9c%10ccccc%10c%10ccccc%109)cc8)cc(c2c37)C1=O)c64)C(=O)N(CCCCCCCC)C5=O`: for the setting “in ClC(Cl)Cl”, the absorption maximum is 561 nm.
Compound `N#Cc1c(N2c3ccccc3C(c3ccccc3)(c3ccccc3)c3ccccc32)cccc1N1c2ccccc2C(c2ccccc2)(c2ccccc2)c2ccccc21` showed an absorption maximum (in Cc1ccccc1) of 369 nm.
The compound `C(#Cc1ccccc1)C(C#Cc1ccccc1)=Cc1ccc(C=C(C#Cc2ccccc2)C#Cc2ccccc2)cc1` displayed an absorption maximum (in ClC(Cl)Cl) of 416 nm.
Regarding `Cc1cc2c3ccccc3oc2c2[nH]c3ccccc3c12`, where the note is “in ClCCl”, the absorption maximum stood at 314 nm.
On to `CC1(C)Nc2cc3nc4cc(F)c(F)cc4nc3cc2N1`, for which the absorption maximum (in CCO) was determined as 440 nm.
`CCCCC(CC)COc1ccc2nc(-c3ccc(-c4cccs4)s3)sc2c1` (stereo unspecified): the absorption maximum (in ClCCl) worked out at 382 nm.
On the same count and under the same terms, to `CCn1c2ccccc2c2cccc(N(c3ccccc3)c3ccccc3)c21` belongs 353 nm.
For `CC(C)(C)c1ccc2c(c1)c1cc(C(C)(C)C)ccc1n2-c1ccc(N(c2ccc(-c3ccc(-c4ccc(-c5ccc(-c6ccc(-c7ccc(N(c8ccc(-n9c%10ccc(C(C)(C)C)cc%10c%10cc(C(C)(C)C)ccc%109)cc8)c8ccc(-n9c%10ccc(C(C)(C)C)cc%10c%10cc(C(C)(C)C)ccc%109)cc8)cc7)s6)s5)s4)s3)cc2)c2ccc(-n3c4ccc(C(C)(C)C)cc4c4cc(C(C)(C)C)ccc43)cc2)cc1`, the absorption maximum (in ClCCl) is on record as 450 nm.
Regarding `C1=C2c3cc4ccccc4cc3C3=[N+]2[B-]2(Oc4ccccc43)Oc3ccccc3-c3c4cc5ccccc5cc4c1n32` (stereo unspecified), the absorption maximum (in C1CCOC1) amounted to 830 nm.
As for `C[SiH](C)c1ccc([SiH](C)C)c2ccccc12`, the absorption maximum (in C1CCCCC1) was found to be 300 nm.
The compound `N#Cc1ccc(-c2cn3cc(-c4ccccc4)c[n+]3[n-]2)cc1` showed an absorption maximum (in ClCCl) of 383 nm.
Turning to `CCCCCCCCCCCCC(CCCCCCCCCC)Cn1c2cc(/C=C/C=C(C#N)C#N)c3cccc4c5cccc6c(/C=C/C=C(C#N)C#N)cc1c(c65)c2c34` (stereo unspecified), the absorption maximum is, setting by setting: (in C1CCCCC1) 638 nm; (in CC#N) 599 nm; (in Cc1ccccc1) 597 nm; (in ClCCl) 611 nm.
Take `COC(=O)c1nc2c(N)nc(N(C)C)nc2n1Cc1ccccc1`: the absorption maximum runs as follows: (in C1COCCO1) 340 nm; (in CC#N) 342 nm; (in CO) 345 nm; (in ClCCl) 338 nm.
`Cc1cc(O)c(C(C)C)cc1/N=C/c1ccc([N+](=O)[O-])cc1` registered an absorption maximum (in C1CCCCC1) of 385 nm; an absorption maximum (in C1CCOC1) of 402 nm; an absorption maximum (in C1COCCO1) of 393 nm; an absorption maximum (in CC#N) of 392 nm; an absorption maximum (in CC(C)(C)O) of 407 nm; an absorption maximum (in CC(C)O) of 404 nm. The same compound yielded an absorption maximum (in CCCCCC) of 383 nm; an absorption maximum (in CCCCO) of 405 nm; an absorption maximum (in CCO) of 402 nm; an absorption maximum (in CCOC(C)=O) of 397 nm; an absorption maximum (in CN(C)C=O) of 407 nm; an absorption maximum (in CO) of 399 nm. Further, the absorption maximum is reported as 410 nm (in CS(C)=O); 398 nm (in ClC(Cl)Cl); 392 nm (in ClCCl); 395 nm (in O); 401 nm (in OCCO).
In the case of `CC1=CC(C)=[N+]2C1=C(c1c3ccccc3c(-c3ccccc3)c3ccccc13)c1c(C)cc(C)n1[B-]2(F)F`, the absorption maximum (in CC#N) is reported as 503 nm; the absorption maximum (in CCCCCC) is 505 nm; the absorption maximum (in CCO) is recorded as 504 nm; the absorption maximum (in CN(C)C=O) was 507 nm; the absorption maximum (in Cc1ccccc1) came to 509 nm; the absorption maximum (in ClCCl) was 507 nm.
As for `Cc1ccc(N(c2ccc(C)cc2)c2ccc(-c3c4ccccc4c(-c4ccc(N(c5ccc(C)cc5)c5ccc(C)cc5)cc4)c4nsnc34)cc2)cc1`, the absorption maximum runs as follows: (in Cc1ccccc1) 538 nm; (in ClCCl) 536 nm.
In turn, `CC1=[N+]2C(=C(c3ccccc3)c3ccc(/C=C/c4ccc(C(=C(c5ccccc5)c5ccccc5)c5ccccc5)cc4)n3[B-]2(F)F)C=C1` had an absorption maximum (in C1CCOC1) of 585 nm.
With `CN(C)c1ccc(C2=Cc3cccc[n+]3[B-](F)(F)O2)cc1`, the absorption maximum was 420 nm (in C1CCOC1); 417 nm (in C1COCCO1); 413 nm (in CC1CCCCC1); 417 nm (in CC#N); 416 nm (in CCOC(C)=O); 413 nm (in CCOCC). Moreover, the absorption maximum is, setting by setting: (in CN(C)C=O) 423 nm; (in CO) 418 nm; (in COC(C)=O) 417 nm; (in ClC(Cl)Cl) 426 nm.
As to `CC(C)(C)c1ccc2c(c1)Cc1cc(C(C)(C)C)ccc1-2`, the absorption maximum (in C1CCCCC1) worked out at 308 nm.
Where the note is “in ClCCl”, `CCC1=C(C)C2=C(/C=C/Sc3ccccc3)c3c(C)c(CC)c(C)n3[B-](F)(F)[N+]2=C1C` registered an absorption maximum of 528 nm.
Where the note is “in CO”, `CCC1(CC)c2cc(-c3ccc(-c4ccc5c(c4)C(CC)(CC)c4cc(C(C)(C)C)ccc4-5)cc3)ccc2-c2ccc(C(C)(C)C)cc21` displayed an absorption maximum of 332.42 nm.

Values taken from the Deep4Chem optical property database.
